The values below come from patent US11629171B2, “Beta-hairpin peptidomimetics” (POLYPHOR AG, priority 2017, dated 2023).

Converted amounts (≈) assume the structure as drawn. Read-outs that look alike come from different tables or passages of the source. Where a SMILES comes first, the peptide text is derived from it. Bridges are numbered along the chain shown (N, C = ends). Roman numbers before positions name the chains, in order. [ ]: non-standard residue; d: D form. The star is where a group is joined. Tyrosinol = OC[C@H](Cc1ccc(O)cc1)N*; Thr(ol) = C[C@@H](O)[C@H](N)CO; Tle = CC(C)(C)[C@H](N)C(=O)O; Hiv = CC(C)[C@H](O)C(=O)O; dDab = NCC[C@@H](N)C(=O)O; hSer = N[C@@H](CCO)C(=O)O; Dab = NCC[C@H](N)C(=O)O; Dap = NC[C@H](N)C(=O)O

Holding throughout (format): cell-based
For series [1], the system named is human red blood cells (hRBC). Put plainly: Hemolysis. Summed up:
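Percent hemolysis relative to 2% Triton X-100 (100%) and PBS/10% water (0%), from blank-corrected OD540 of diluted supernatants. Peptides tested at 200 μg/mL against 20% (v/v) washed human erythrocytes, 1 h, 37° C, shaking at 300 rpm.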

The subject of series [2] is Pseudomonas aeruginosa ATCC 27853. Summed up: (§1)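 MIC in μg/mL, read as absence of visible growth after 18-20 h incubation at 35° C, by standard CLSI microdilution. Peptides tested in two-fold serial dilution in cation-adjusted MH-II broth containing 0.002% (final) Polysorbate 80, against roughly 10^6 CFU/mL inocula.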
The test system of series [3] is Acinetobacter baumannii 872842. Summed up: as §1
Series [4] concerns Escherichia coli ATCC 25922. A digest of the protocol:
as §1

Series [5] relates to Klebsiella pneumoniae SSI #3010. Summed up: as §1
The test system of series [6] is Klebsiella pneumoniae 968733. Summed up:
as §1

Series [7] deals with Enterobacter cloacae 848840. Summed up: as §1
Series [8] concerns Acinetobacter baumannii DSM 30008. A digest of the protocol: as §1
The subject of a further series is Escherichia coli 926415. Summed up: as §1

One may read the MIC as the smallest concentration in the dilution series that meets the test's criterion for growth inhibition. Lower therefore signals inhibition by little substance. Consider `CC(C)C[C@@H]1NC(=O)[C@@H](CC(C)C)NC(=O)[C@H](CCN)NC(=O)[C@@H](NC(=O)[C@H](CCN)NC(=O)[C@@H](NC(=O)[C@H](CCN)NC(=O)CC[C@@H]2NC(=O)[C@H](CO)NC(=O)[C@H](Cc3ccc(O)cc3)NC(=O)[C@@H](NC(=O)[C@@H](O)C(C)C)CSSC[C@@H](C(=O)N[C@H](CO)[C@@H](C)O)NC(=O)[C@H](C(C)(C)C)NC(=O)[C@H](CO)NC(=O)[C@H](Cc3c[nH]c4ccccc34)NC(=O)[C@H](CCO)NC(=O)[C@@H](CCN)NC2=O)[C@@H](C)O)CCNC(=O)[C@H]([C@@H](C)O)NC(=O)[C@H](CCN)NC(=O)[C@H](CCN)NC1=O` [Ex. 88] (I: H-[Hiv]CYSE[dDab][hSer]WS[Tle]C[Thr(ol)] / II: [Dab]T[Dab][Dab][Dab][dL]L[Dab][Dab]T; disulfide I:2-I:11; amide I:5-II:N; lactam II:4-II:C), for which the “Hemolysis at 200 μg/mL” value in series [1] (red cells of human, 1 h, 200) was less than 1%. Further, the MIC in series [2] (ATCC 27853) was 0.125 µg/mL (≈ 0.0523 µM); in series [3] (872842), 0.125 µg/mL (≈ 0.0523 µM); in [4] (ATCC 25922), 0.0625 µg/mL (≈ 0.0262 µM); in series [5] (SSI #3010) it was 0.125 µg/mL (≈ 0.0523 µM); in series [6] (968733), 0.125 µg/mL (≈ 0.0523 µM); in series [7] (848840), 0.125 µg/mL (≈ 0.0523 µM). The results for the MIC (in [8] (DSM 30008); against Escherichia coli 926415 (926415)) were 0.03125 µg/mL (≈ 0.0131 µM) and 0.125 µg/mL (≈ 0.0523 µM), respectively.

`CC(C)C[C@@H]1NC(=O)[C@@H](CC(C)C)NC(=O)[C@H](CCN)NC(=O)[C@@H](NC(=O)[C@H](CCN)NC(=O)[C@@H](NC(=O)[C@H](CCN)NC(=O)CC[C@@H]2NC(=O)[C@H](CCN)NC(=O)[C@H](C(C)C)NC(=O)[C@@H](NC(=O)[C@@H](O)C(C)C)CSSC[C@@H](C(=O)N[C@H](CO)[C@@H](C)O)NC(=O)[C@H](Cc3ccc(O)cc3)NC(=O)[C@H](CO)NC(=O)[C@H](Cc3c[nH]c4ccccc34)NC(=O)[C@H](CCO)NC(=O)[C@@H](CCN)NC2=O)[C@@H](C)O)CCNC(=O)[C@H]([C@@H](C)O)NC(=O)[C@H](CCN)NC(=O)[C@H](CCN)NC1=O` [Ex. 89] (I: H-[Hiv]CV[Dab]E[dDab][hSer]WSYC[Thr(ol)] / II: [Dab]T[Dab][Dab][Dab][dL]L[Dab][Dab]T; disulfide I:2-I:11; amide I:5-II:N; lactam II:4-II:C): in series [1] (red cells of human, 1 h, 200), the “Hemolysis at 200 μg/mL” value is given as less than 1%. For the same compound, the MIC in series [2] (ATCC 27853) is 0.25 µg/mL (≈ 0.105 µM); in [3] (872842), 0.5 µg/mL (≈ 0.209 µM); in series [4] (ATCC 25922), 0.125 µg/mL (≈ 0.0524 µM); in series [5] (SSI #3010), 0.125 µg/mL (≈ 0.0524 µM); in series [6] (968733), 1 µg/mL (≈ 0.419 µM); in series [7] (848840), 0.5 µg/mL (≈ 0.209 µM). Also, the results for the MIC (in series [8] (DSM 30008); in the series on Escherichia coli 926415 (926415)) were 0.0625 µg/mL (≈ 0.0262 µM) and 0.5 µg/mL (≈ 0.209 µM), respectively.

`CC(C)C[C@@H]1NC(=O)[C@@H](CC(C)C)NC(=O)[C@H](CCN)NC(=O)[C@@H](NC(=O)[C@H](CCN)NC(=O)[C@@H](NC(=O)[C@H](CCN)NC(=O)CC[C@@H]2NC(=O)[C@H](CN)NC(=O)[C@H](Cc3ccc(O)cc3)NC(=O)[C@@H](NC(=O)[C@@H](O)C(C)C)CSSC[C@@H](C(=O)N[C@H](CO)[C@@H](C)O)NC(=O)[C@H](C(C)(C)C)NC(=O)[C@H](CCC(=O)O)NC(=O)[C@H](Cc3c[nH]c4ccccc34)NC(=O)[C@H]([C@@H](C)O)NC(=O)[C@@H](CCN)NC2=O)[C@@H](C)O)CCNC(=O)[C@H]([C@@H](C)O)NC(=O)[C@H](CCN)NC(=O)[C@H](CCN)NC1=O` [Ex. 90] (I: H-[Hiv]CY[Dap]E[dDab]TWE[Tle]C[Thr(ol)] / II: [Dab]T[Dab][Dab][Dab][dL]L[Dab][Dab]T; disulfide I:2-I:11; amide I:5-II:N; lactam II:4-II:C): the “Hemolysis at 200 μg/mL” value in series [1] (red cells of human, 1 h, 200) was less than 1%. Further, the MIC in [2] (ATCC 27853) is 0.25 µg/mL (≈ 0.103 µM); in series [3] (872842), 0.125 µg/mL (≈ 0.0515 µM); in [4] (ATCC 25922) it was 0.0625 µg/mL (≈ 0.0257 µM); in series [5] (SSI #3010), 0.125 µg/mL (≈ 0.0515 µM); in series [6] (968733), 0.25 µg/mL (≈ 0.103 µM); in series [7] (848840), 0.25 µg/mL (≈ 0.103 µM). The results for the MIC (in [8] (DSM 30008); in the series on Escherichia coli 926415 (926415)) were 0.125 µg/mL (≈ 0.0515 µM) and 0.5 µg/mL (≈ 0.206 µM), respectively.

As for `CC(C)C[C@@H]1NC(=O)[C@@H](CC(C)C)NC(=O)[C@H](CCN)NC(=O)[C@@H](NC(=O)[C@H](CCN)NC(=O)[C@@H](NC(=O)[C@H](CCN)NC(=O)CC[C@@H]2NC(=O)[C@H](CCC(=O)O)NC(=O)[C@H](Cc3ccc(O)cc3)NC(=O)[C@@H](NC(=O)[C@@H](O)C(C)C)CSSC[C@@H](C(=O)N[C@H](CO)[C@@H](C)O)NC(=O)[C@H](C(C)(C)C)NC(=O)[C@H](CN)NC(=O)[C@H](Cc3c[nH]c4ccccc34)NC(=O)[C@H]([C@@H](C)O)NC(=O)[C@@H](CCN)NC2=O)[C@@H](C)O)CCNC(=O)[C@H]([C@@H](C)O)NC(=O)[C@H](CCN)NC(=O)[C@H](CCN)NC1=O` [Ex. 91] (I: H-[Hiv]CYEE[dDab]TW[Dap][Tle]C[Thr(ol)] / II: [Dab]T[Dab][Dab][Dab][dL]L[Dab][Dab]T; disulfide I:2-I:11; amide I:5-II:N; lactam II:4-II:C), the “Hemolysis at 200 μg/mL” value in series [1] (red cells of human, 1 h, 200) is less than 1%. Besides, the MIC was found to be 0.25 µg/mL (≈ 0.103 µM) in [2] (ATCC 27853); 0.5 µg/mL (≈ 0.206 µM) in series [3] (872842); 0.0625 µg/mL (≈ 0.0257 µM) in series [4] (ATCC 25922); 0.25 µg/mL (≈ 0.103 µM) in series [5] (SSI #3010); 2 µg/mL (≈ 0.823 µM) in [6] (968733); 1 µg/mL (≈ 0.412 µM) in [7] (848840). Further, the MIC worked out at 0.125 µg/mL (≈ 0.0515 µM) in series [8] (DSM 30008) and 2 µg/mL (≈ 0.823 µM) against Escherichia coli 926415 (926415).

Regarding `CC(C)C[C@@H]1NC(=O)[C@@H](CC(C)C)NC(=O)[C@H](CCN)NC(=O)[C@@H](NC(=O)[C@H](CCN)NC(=O)[C@@H](NC(=O)[C@H](CCN)NC(=O)CC[C@@H]2NC(=O)[C@H](CCN)NC(=O)[C@H]([C@@H](C)O)NC(=O)[C@@H](NC(=O)[C@@H](O)C(C)C)CSSC[C@@H](C(=O)N[C@H](CO)Cc3ccc(O)cc3)NC(=O)[C@H](C(C)(C)C)NC(=O)[C@H](CO)NC(=O)[C@H](Cc3c[nH]c4ccccc34)NC(=O)[C@H](CCO)NC(=O)[C@@H](CCN)NC2=O)[C@@H](C)O)CCNC(=O)[C@H]([C@@H](C)O)NC(=O)[C@H](CCN)NC(=O)[C@H](CCN)NC1=O` [Ex. 93] (I: H-[Hiv]CT[Dab]E[dDab][hSer]WS[Tle]C-Tyrosinol / II: [Dab]T[Dab][Dab][Dab][dL]L[Dab][Dab]T; disulfide I:2-I:11; amide I:5-II:N; lactam II:4-II:C), the “Hemolysis at 200 μg/mL” value in series [1] (red cells of human, 1 h, 200) is on record as less than 1%. For the same compound, the MIC in series [2] (ATCC 27853) worked out at 0.25 µg/mL (≈ 0.104 µM); in series [3] (872842), 0.5 µg/mL (≈ 0.208 µM); in [4] (ATCC 25922), 0.125 µg/mL (≈ 0.0521 µM); in [5] (SSI #3010), 0.125 µg/mL (≈ 0.0521 µM); in [6] (968733) it was 0.5 µg/mL (≈ 0.208 µM); in series [7] (848840) it was 0.25 µg/mL (≈ 0.104 µM). Moreover, the MIC (in series [8] (DSM 30008); against Escherichia coli 926415 (926415)) was 0.25 µg/mL (≈ 0.104 µM) in each case.

With `CC(=O)N[C@H](C(=O)N[C@H]1CSSC[C@@H](C(=O)N[C@H](CO)Cc2ccc(O)cc2)NC(=O)[C@H](C(C)(C)C)NC(=O)[C@H](CO)NC(=O)[C@H](Cc2c[nH]c3ccccc23)NC(=O)[C@H](CCO)NC(=O)[C@@H](CCN)NC(=O)[C@H](CCC(=O)N[C@@H](CCN)C(=O)N[C@H](C(=O)N[C@@H](CCN)C(=O)N[C@H]2CCNC(=O)[C@H]([C@@H](C)O)NC(=O)[C@H](CCN)NC(=O)[C@H](CCN)NC(=O)[C@H](CC(C)C)NC(=O)[C@@H](CC(C)C)NC(=O)[C@H](CCN)NC2=O)[C@@H](C)O)NC(=O)[C@H](CCN)NC(=O)[C@H](CO)NC1=O)C(C)C` [Ex. 94] (I: Ac-VCS[Dab]E[dDab][hSer]WS[Tle]C-Tyrosinol / II: [Dab]T[Dab][Dab][Dab][dL]L[Dab][Dab]T; disulfide I:2-I:11; amide I:5-II:N; lactam II:4-II:C), the “Hemolysis at 200 μg/mL” value in series [1] (200 μg/mL, human red blood cells) is less than 1%. Further, the MIC was determined as 0.25 µg/mL (≈ 0.103 µM) in [2] (Pseudomonas aeruginosa ATCC 27853, Mueller-Hinton II broth); 0.25 µg/mL (≈ 0.103 µM) in series [3] (Acinetobacter baumannii 872842 clinical isolate, Mueller-Hinton II broth); 0.0625 µg/mL (≈ 0.0257 µM) in series [4] (Escherichia coli ATCC 25922, Mueller-Hinton II broth); 0.0625 µg/mL (≈ 0.0257 µM) in series [5] (Klebsiella pneumoniae SSI #3010, Mueller-Hinton II broth); 0.25 µg/mL (≈ 0.103 µM) in series [6] (Klebsiella pneumoniae 968733 clinical isolate, Mueller-Hinton II broth); 1 µg/mL (≈ 0.412 µM) in series [7] (Enterobacter cloacae 848840 clinical isolate, Mueller-Hinton II broth). Also, the MIC in series [8] (Acinetobacter baumannii DSM 30008, Mueller-Hinton II broth) worked out at 0.125 µg/mL (≈ 0.0515 µM); in the series with Escherichia coli 926415 (Escherichia coli 926415 clinical isolate, Mueller-Hinton II broth) it was 0.25 µg/mL (≈ 0.103 µM).
